Among the test systems are BT-549 breast; HL-60(TB) leukemia; IGROV1 ovarian; OVCAR-3 ovarian; OVCAR-8 ovarian; SNB-19 CNS; SR leukemia; U251 CNS.
Holding throughout (experiment): NCI tumour cell line growth inhibition, 48 h

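Cells were grown in 96-well plates and exposed to each compound for 48 hours at five concentrations; endpoints were interpolated linearly between bracketing concentrations, or set to the highest concentration if not reached. Here, GI50 denotes the concentration required for 50% inhibition of growth. The concentration for full growth arrest is given as TGI.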 Bounds are passed on as bounds.

In the case of `COc1cc(-c2oc3c(OC)c(O)cc(O)c3c(=O)c2OC)ccc1O`, the TGI in the experiment on BT-549 breast is 59.2 µM; in the experiment on HL-60(TB) leukemia, over 33.3 µM; in the experiment with IGROV1 ovarian it was 15.3 µM; in the experiment on OVCAR-3 ovarian it was 22.3 µM; in the experiment on OVCAR-8 ovarian, over 100 µM; in the experiment on SNB-19 CNS, over 100 µM. Further, the figures for the TGI in the experiment with SR leukemia and in the experiment on U251 CNS were over 26.7 µM and over 62.5 µM, respectively.
Consider `CN(C)C(=S)SCC(N)=O`, for which the TGI with BT-549 breast, in the experiment with HL-60(TB) leukemia, in the experiment with IGROV1 ovarian, in the experiment with OVCAR-3 ovarian, with OVCAR-8 ovarian and with SNB-19 CNS was over 100 µM throughout. For the same compound, the TGI in the experiment on SR leukemia and in the experiment with U251 CNS was over 100 µM each time.
On to `Cn1c2ccccc2c2[nH]c3ccccc3c(=O)c21`, for which the TGI in the experiment with BT-549 breast, in the experiment with HL-60(TB) leukemia, with IGROV1 ovarian, in the experiment with OVCAR-3 ovarian, in the experiment with OVCAR-8 ovarian and with SNB-19 CNS was over 100 µM throughout. Besides, the TGI with SR leukemia and in the experiment on U251 CNS was over 100 µM throughout.
Turning to `Cc1cn(Cc2ccccc2CCl)c(=O)n(Cc2ccccc2CCl)c1=O`, the GI50 in the experiment on BT-549 breast was 1.85 µM; with HL-60(TB) leukemia, 1.37 µM; with IGROV1 ovarian, 0.53 µM; in the experiment with OVCAR-3 ovarian, 1.85 µM; with OVCAR-8 ovarian, 2.39 µM; in the experiment on SNB-19 CNS, 2.57 µM. Also, the GI50 in the experiment on SR leukemia was 0.661 µM; in the experiment with U251 CNS it was 1.57 µM. The TGI in the experiment with BT-549 breast was 3.52 µM; with HL-60(TB) leukemia, 3.24 µM; with IGROV1 ovarian, 2.25 µM; with OVCAR-3 ovarian, 3.65 µM; in the experiment with OVCAR-8 ovarian, 5.69 µM; in the experiment on SNB-19 CNS it was 6.66 µM. For the same compound, the TGI in the experiment on SR leukemia is 3.25 µM; with U251 CNS, 3.1 µM.
For `CN(C)CC1=Nc2cccc3cccc(c23)N1`, the TGI in the experiment on BT-549 breast is 31.5 µM; in the experiment on HL-60(TB) leukemia it was 45.2 µM; with IGROV1 ovarian, 36.6 µM; in the experiment with OVCAR-3 ovarian, 30.5 µM; in the experiment with OVCAR-8 ovarian, over 100 µM; in the experiment with SNB-19 CNS, over 100 µM. The TGI is 84.3 µM in the experiment with SR leukemia and 32.5 µM with U251 CNS.
Turning to `CN(C)c1ncnc2c1ccn2C1OC(CO)C(O)C1O` (stereo unspecified), the GI50 is 3.98 µM with BT-549 breast; 0.316 µM in the experiment on HL-60(TB) leukemia; 0.237 µM in the experiment on IGROV1 ovarian; 0.938 µM in the experiment on OVCAR-3 ovarian; 0.89 µM with OVCAR-8 ovarian; 44.5 µM with SNB-19 CNS. Also, the GI50 in the experiment on SR leukemia was 13.8 µM; in the experiment with U251 CNS it was over 100 µM. For the same compound, the TGI with BT-549 breast was over 100 µM; with HL-60(TB) leukemia, 1.89 µM; in the experiment with IGROV1 ovarian, 4.22 µM; in the experiment with OVCAR-3 ovarian, over 34.6 µM; in the experiment with OVCAR-8 ovarian, 6.81 µM; with SNB-19 CNS, over 100 µM. For the same compound, the TGI in the experiment with SR leukemia and with U251 CNS was over 100 µM in each case.
With `CC1=NN(c2ccccc2)C(=O)C1N=Nc1ccc(S(N)(=O)=O)cc1` (stereo unspecified), the TGI in the experiment with BT-549 breast, with HL-60(TB) leukemia, with IGROV1 ovarian, in the experiment on OVCAR-3 ovarian, in the experiment with OVCAR-8 ovarian and in the experiment with SNB-19 CNS was over 100 µM each time. Also, the TGI in the experiment on SR leukemia and in the experiment on U251 CNS was over 100 µM each time.
Regarding `Nc1cc(-c2ccccc2)n(C(=O)Nc2ccc(Oc3ccccc3)cc2)n1`, the GI50 in the experiment with BT-549 breast is 86.2 µM; with HL-60(TB) leukemia, 47.8 µM; in the experiment on IGROV1 ovarian, 36 µM; in the experiment on OVCAR-3 ovarian, 31.3 µM; with OVCAR-8 ovarian, 20.1 µM; in the experiment with SNB-19 CNS, 91.5 µM. In addition, the GI50 with SR leukemia was 22.2 µM; with U251 CNS, 32.1 µM. The TGI in the experiment with BT-549 breast is over 100 µM; in the experiment on HL-60(TB) leukemia, over 100 µM; in the experiment on IGROV1 ovarian, over 100 µM; in the experiment with OVCAR-3 ovarian, over 100 µM; with OVCAR-8 ovarian, 57.1 µM; in the experiment with SNB-19 CNS, over 100 µM. Besides, the TGI in the experiment on SR leukemia is 43.5 µM; in the experiment on U251 CNS it was over 100 µM.
On to `O=C1COCCN1c1ccc(NCc2cn(C(=O)c3ccc(Cl)cc3)c3ccccc23)cc1`, for which the GI50 is 4.37 µM in the experiment with BT-549 breast; 4.97 µM in the experiment with HL-60(TB) leukemia; 0.252 µM with IGROV1 ovarian; 1.21 µM in the experiment on OVCAR-3 ovarian; 5.04 µM in the experiment with OVCAR-8 ovarian; 20.8 µM with SNB-19 CNS. The figures for the GI50 in the experiment with SR leukemia and in the experiment with U251 CNS were 3.08 µM and 1.19 µM, respectively. Besides, the TGI in the experiment on BT-549 breast was 53.7 µM; in the experiment on HL-60(TB) leukemia, 20.9 µM; with IGROV1 ovarian, 8.51 µM; in the experiment with OVCAR-3 ovarian it was 12.5 µM; with OVCAR-8 ovarian, over 100 µM; with SNB-19 CNS it was over 100 µM. For the same compound, the TGI in the experiment with SR leukemia was over 100 µM; in the experiment with U251 CNS, 25.8 µM.
Consider `Cn1ncnc1C1c2n[nH]c(=O)c3cc(F)cc(c23)NC1c1ccc(F)cc1` (stereo unspecified), for which the GI50 with BT-549 breast was over 69.9 µM; in the experiment on HL-60(TB) leukemia it was 4.86 µM; in the experiment on IGROV1 ovarian, over 100 µM; in the experiment on OVCAR-3 ovarian it was over 100 µM; in the experiment on OVCAR-8 ovarian, over 100 µM; in the experiment with SNB-19 CNS, 11.2 µM. Also, the GI50 in the experiment on SR leukemia was under 0.0265 µM; with U251 CNS it was 2.18 µM. Besides, the TGI with BT-549 breast, in the experiment on HL-60(TB) leukemia, in the experiment on IGROV1 ovarian, with OVCAR-3 ovarian, in the experiment on OVCAR-8 ovarian and in the experiment with SNB-19 CNS was over 100 µM throughout. Further, the values for the TGI with SR leukemia and with U251 CNS were over 62.5 µM and over 100 µM, respectively.
On to `COC(=O)Nc1nc2ccc(S(=O)(=O)c3ccc(NC(=O)Nc4cc(C(F)(F)F)ccc4F)cc3)cc2[nH]1`, for which the GI50 in the experiment with BT-549 breast, with HL-60(TB) leukemia, in the experiment on IGROV1 ovarian, in the experiment with OVCAR-3 ovarian, in the experiment on OVCAR-8 ovarian and with SNB-19 CNS was over 25 µM throughout. Besides, the GI50 in the experiment with SR leukemia and in the experiment on U251 CNS was over 25 µM in each case. For the same compound, the TGI with BT-549 breast, in the experiment on HL-60(TB) leukemia, with IGROV1 ovarian, in the experiment with OVCAR-3 ovarian, with OVCAR-8 ovarian and with SNB-19 CNS was over 25 µM throughout. Moreover, the TGI in the experiment with SR leukemia and in the experiment on U251 CNS was over 25 µM each time.

Values taken from PubChem BioAssay (NCI).
